In patent publication US12599582B2, “Pyrrole compounds” (ALIGOS THERAPEUTICS, INC., priority 2019, dated 2026):

System: HBV
Test: HBV-DNA Antiviral Assay Using HepG2.2.15 Cells (extracellular HBV DNA by qPCR)
Format: cell-based, hepatitis B virus (HBV)
Conditions: Hepatitis B virus; HBV DNA inhibition, HepG2.2.15 cells, extracellular HBV DNA by qPCR; read-out: EC50
In short: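 HepG2.2.15 cells were treated on day 1 with 8 concentrations (4-fold dilutions, duplicate; 0.5% DMSO), with compound-containing medium refreshed on day 4, at 37 °C. On day 7, supernatant HBV DNA was measured by qPCR against a plasmid standard curve, with inhibition normalised between DMSO and ETV controls. EC50/EC90 and CC50 (CellTiter-Glo ATP) came from variable-slope fits.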

SMILES	EC50
C=C[C@](C)(CO)NC(=O)C(=O)c1c(C)c(C(=O)Nc2ccc(F)c(C#N)c2)n(C)c1C [Compound 72a, N-(3-cyano-4-fluoro-phenyl)-1,3,5-trimethyl-4-[2-oxo-2-[[(1R)-1-(hydroxymethyl)-1-methyl-allyl]amino]acetyl]pyrrole-2-carboxamide]	1 to 10 nM
C=C[C@@](C)(CO)NC(=O)C(=O)c1c(C)c(C(=O)Nc2ccc(F)c(C#N)c2)n(C)c1C [Compound 72b, N-(3-cyano-4-fluoro-phenyl)-1,3,5-trimethyl-4-[2-oxo-2-[[(1S)-1-(hydroxymethyl)-1-methyl-allyl]amino]acetyl]pyrrole-2-carboxamide]	1 to 10 nM
C=C[C@](CO)(NC(=O)C(=O)c1c(C)c(C(=O)Nc2ccc(F)c(C#N)c2)n(C)c1C)C(F)(F)F [Compound 74a, N-(3-cyano-4-fluoro-phenyl)-1,3,5-trimethyl-4-[2-oxo-2-[[(1R)-1-(hydroxymethyl)-1-(trifluoromethyl)allyl]amino]acetyl]pyrrole-2-carboxamide]	1 to 10 nM
C#C[C@@](CO)(NC(=O)C(=O)c1c(C)c(C(=O)Nc2ccc(F)c(C(F)(F)F)c2)n(C)c1C)C(F)(F)F [Compound 75b, N-[4-fluoro-3-(trifluoromethyl)phenyl]-1,3,5-trimethyl-4-[2-oxo-2-[[(1S)-1-(hydroxymethyl)-1-(trifluoromethyl)prop-2-ynyl]amino]acetyl]pyrrole-2-carboxamide]	10 to 100 nM
Cc1c(C(=O)C(=O)NC2(C#CCO)COC2)c(C)n(C)c1C(=O)Nc1ccc(F)c(C#N)c1 [Compound 76, N-(3-cyano-4-fluoro-phenyl)-4-[2-[[3-(3-hydroxyprop-1-ynyl)oxetan-3-yl]amino]-2-oxo-acetyl]-1,3,5-trimethyl-pyrrole-2-carboxamide]	10 to 100 nM
C#C[C@@](C)(NC(=O)C(=O)c1c(C)c(C(=O)Nc2ccc(F)c(C#N)c2)n(C)c1C)C(F)(F)F [Compound 79a, N-(3-cyano-4-fluoro-phenyl)-1,3,5-trimethyl-4-[2-oxo-2-[[(1R)-1-methyl-1-(trifluoromethyl)prop-2-ynyl]amino]acetyl]pyrrole-2-carboxamide]	1 to 10 nM
C#C[C@](C)(NC(=O)C(=O)c1c(C)c(C(=O)Nc2ccc(F)c(C#N)c2)n(C)c1C)C(F)(F)F [Compound 79b, N-(3-cyano-4-fluoro-phenyl)-1,3,5-trimethyl-4-[2-oxo-2-[[(1S)-1-methyl-1-(trifluoromethyl)prop-2-ynyl]amino]acetyl]pyrrole-2-carboxamide]	1 to 10 nM
C=C[C@](CO)(NC(=O)C(=O)c1c(C)c(C(=O)Nc2ccc(F)c(C(F)(F)F)c2)n(C)c1C)C(F)(F)F [Compound 80a, N-[4-fluoro-3-(trifluoromethyl)phenyl]-1,3,5-trimethyl-4-[2-oxo-2-[[(1R)-1-(hydroxymethyl)-1-(trifluoromethyl)allyl]amino]acetyl]pyrrole-2-carboxamide]	1 to 10 nM
C=C[C@@](CO)(NC(=O)C(=O)c1c(C)c(C(=O)Nc2ccc(F)c(C(F)(F)F)c2)n(C)c1C)C(F)(F)F [Compound 80b, N-[4-fluoro-3-(trifluoromethyl)phenyl]-1,3,5-trimethyl-4-[2-oxo-2-[[(1S)-1-(hydroxymethyl)-1-(trifluoromethyl)allyl]amino]acetyl]pyrrole-2-carboxamide]	1 to 10 nM
C#CC1(NC(=O)C(=O)c2c(C)c(C(=O)Nc3ccc(F)c(C(F)F)c3)n(C)c2Cl)CC(F)(F)C1 [Compound 81, 5-chloro-N-[3-(difluoromethyl)-4-fluoro-phenyl]-4-[2-[(1-ethynyl-3,3-difluoro-cyclobutyl)amino]-2-oxo-acetyl]-1,3-dimethyl-pyrrole-2-carboxamide]	1 to 10 nM
C#CC1(NC(=O)C(=O)c2c(C)c(C(=O)Nc3ccc(F)c(C(F)F)c3)n(C)c2C)CC(F)(F)C1 [Compound 82, N-[3-(difluoromethyl)-4-fluoro-phenyl]-4-[2-[(1-ethynyl-3,3-difluoro-cyclobutyl)amino]-2-oxo-acetyl]-1,3,5-trimethyl-pyrrole-2-carboxamide]	1 to 10 nM
C#CC1(NC(=O)C(=O)c2c(C)c(C(=O)Nc3ccnc(Br)c3F)n(C)c2C)COC1 [Compound 83, N-(2-bromo-3-fluoro-4-pyridyl)-4-[2-[(3-ethynyloxetan-3-yl)amino]-2-oxo-acetyl]-1,3,5-trimethyl-pyrrole-2-carboxamide]	1 to 10 nM
C#CC1(NC(=O)C(=O)c2c(C)c(C(=O)Nc3ccnc(Br)c3F)n(C)c2C)CC(F)(F)C1 [Compound 84, N-(2-bromo-3-fluoro-4-pyridyl)-4-[2-[(1-ethynyl-3,3-difluoro-cyclobutyl)amino]-2-oxo-acetyl]-1,3,5-trimethyl-pyrrole-2-carboxamide]	1 to 10 nM
Cc1c(C(=O)C(=O)NC(C)(C)c2nccs2)c(C)n(C)c1C(=O)Nc1ccc(F)c(C#N)c1 [Compound 85, N-(3-cyano-4-fluoro-phenyl)-1,3,5-trimethyl-4-[2-[(1-methyl-1-thiazol-2-yl-ethyl)amino]-2-oxo-acetyl]pyrrole-2-carboxamide]	1 to 10 nM
C#CC1(NC(=O)C(=O)c2c(C)c(C(=O)Nc3ccc(F)c(F)c3)n(C)c2C)COC1 [Compound 86, N-(3,4-difluorophenyl)-4-[2-[(3-ethynyloxetan-3-yl)amino]-2-oxo-acetyl]-1,3,5-trimethyl-pyrrole-2-carboxamide]	1 to 10 nM
C#CC1(NC(=O)C(=O)c2c(C)c(C(=O)Nc3ccc(F)c(F)c3)n(C)c2C)CCCCC1 [Compound 87, N-(3,4-difluorophenyl)-4-[2-[(1-ethynylcyclohexyl)amino]-2-oxo-acetyl]-1,3,5-trimethyl-pyrrole-2-carboxamide]	1 to 10 nM
C#CC(C)(CC)NC(=O)C(=O)c1c(C)c(C(=O)Nc2ccc(F)c(F)c2)n(C)c1C (centres unmarked) [Compound 88, N-(3,4-difluorophenyl)-4-[2-[(1-ethyl-1-methyl-prop-2-ynyl)amino]-2-oxo-acetyl]-1,3,5-trimethyl-pyrrole-2-carboxamide]	1 to 10 nM
C#CC(CC)(CC)NC(=O)C(=O)c1c(C)c(C(=O)Nc2ccc(F)c(F)c2)n(C)c1C [Compound 89, 4-[2-(1,1-diethylprop-2-ynylamino)-2-oxo-acetyl]-N-(3,4-difluorophenyl)-1,3,5-trimethyl-pyrrole-2-carboxamide]	1 to 10 nM
C#CC(C)(C)NC(=O)C(=O)c1c(C)c(C(=O)Nc2ccc(F)c(F)c2)n(C)c1C [Compound 90, N-(3,4-difluorophenyl)-4-[2-(1,1-dimethylprop-2-ynylamino)-2-oxo-acetyl]-1,3,5-trimethyl-pyrrole-2-carboxamide]	1 to 10 nM
Cc1c(C(=O)C(=O)NC(C)(C)c2ccccn2)c(C)n(C)c1C(=O)Nc1ccc(F)c(C#N)c1 [Compound 91, N-(3-cyano-4-fluoro-phenyl)-1,3,5-trimethyl-4-[2-[[1-methyl-1-(2-pyridyl)ethyl]amino]-2-oxo-acetyl]pyrrole-2-carboxamide]	1 to 10 nM
Cc1c(C(=O)C(=O)NC(C)(C)c2cccnc2)c(C)n(C)c1C(=O)Nc1ccc(F)c(C#N)c1 [Compound 92, N-(3-cyano-4-fluoro-phenyl)-1,3,5-trimethyl-4-[2-[[1-methyl-1-(3-pyridyl)ethyl]amino]-2-oxo-acetyl]pyrrole-2-carboxamide]	1 to 10 nM
Cc1c(C(=O)C(=O)NC(C)(C)c2ccncc2)c(C)n(C)c1C(=O)Nc1ccc(F)c(C#N)c1 [Compound 93, N-(3-cyano-4-fluoro-phenyl)-1,3,5-trimethyl-4-[2-[[1-methyl-1-(4-pyridyl)ethyl]amino]-2-oxo-acetyl]pyrrole-2-carboxamide]	1 to 10 nM
Cc1c(C(=O)C(=O)NC2(C#C[C@@H](C)O)COC2)c(C)n(C)c1C(=O)Nc1ccc(F)c(C#N)c1 [Compound 94a, N-(3-cyano-4-fluoro-phenyl)-1,3,5-trimethyl-4-[2-oxo-2-[[3-[(3R)-3-hydroxybut-1-ynyl]oxetan-3-yl]amino]acetyl]pyrrole-2-carboxamide]	10 to 100 nM
Cc1c(C(=O)C(=O)NC2(C#C[C@H](C)O)COC2)c(C)n(C)c1C(=O)Nc1ccc(F)c(C#N)c1 [Compound 94b, N-(3-cyano-4-fluoro-phenyl)-1,3,5-trimethyl-4-[2-oxo-2-[[3-[(3S)-3-hydroxybut-1-ynyl]oxetan-3-yl]amino]acetyl]pyrrole-2-carboxamide]	1 to 10 nM
C=C[C@@](C)(NC(=O)C(=O)c1c(C)c(C(=O)Nc2ccc(F)c(C#N)c2)n(C)c1C)C(F)(F)F [Compound 95a, N-(3-cyano-4-fluoro-phenyl)-1,3,5-trimethyl-4-[2-oxo-2-[[(1R)-1-methyl-1-(trifluoromethyl)allyl]amino]acetyl]pyrrole-2-carboxamide]	1 to 10 nM
C=C[C@](C)(NC(=O)C(=O)c1c(C)c(C(=O)Nc2ccc(F)c(C#N)c2)n(C)c1C)C(F)(F)F [Compound 95b, N-(3-cyano-4-fluoro-phenyl)-1,3,5-trimethyl-4-[2-oxo-2-[[(1S)-1-methyl-1-(trifluoromethyl)allyl]amino]acetyl]pyrrole-2-carboxamide]	1 to 10 nM
Cc1c(C(=O)C(=O)NC(C)(C)c2cn[nH]c2)c(C)n(C)c1C(=O)Nc1ccc(F)c(C#N)c1 [Compound 96, N-(3-cyano-4-fluoro-phenyl)-1,3,5-trimethyl-4-[2-[[1-methyl-1-(1H-pyrazol-4-yl)ethyl]amino]-2-oxo-acetyl]pyrrole-2-carboxamide]	1 to 10 nM
Cc1c(C(=O)C(=O)NC(C)(C)c2cn[nH]c2)c(C)n(C)c1C(=O)Nc1ccc(F)c(C(F)(F)F)c1 [Compound 97, N-[4-fluoro-3-(trifluoromethyl)phenyl]-1,3,5-trimethyl-4-[2-[[1-methyl-1-(1H-pyrazol-4-yl)ethyl]amino]-2-oxo-acetyl]pyrrole-2-carboxamide]	< 1 nM
Cc1c(C(=O)C(=O)NC(C)(C)c2cnn(C)c2)c(C)n(C)c1C(=O)Nc1ccc(F)c(C(F)(F)F)c1 [Compound 98, N-[4-fluoro-3-(trifluoromethyl)phenyl]-1,3,5-trimethyl-4-[2-[[1-methyl-1-(1-methylpyrazol-4-yl)ethyl]amino]-2-oxo-acetyl]pyrrole-2-carboxamide]	< 1 nM
